In patent US10278873B2, “Absorbent article having a domed section and method of manufacturing same” (UNICHARM CORPORATION, priority 2011, dated 2019):

Experiment: Surface tension of blood containing blood modifying agent, pendant drop method (Example 7)
Details: 0.10 mass % in sheep defibrinated blood; 35° C.
Protocol: The surface tension of blood containing a blood modifying agent was measured by the pendant drop method, using a Drop Master500 contact angle meter by Kyowa Interface Science Co., Ltd. The surface tension was measured after adding a prescribed amount of blood modifying agent to sheep defibrinated blood, and thoroughly shaking.
The measurement was accomplished automatically with a device, and the […] γ was determined by the following formula (see FIG. 98). γ=g×ρ×(de)^2×1/H
The density ρ was measured at the temperatures listed in Table 5, according to JIS K 2249-1995, “Density test methods and density/mass/volume conversion tables”, “5. Vibrating density test method”.
The measurement was accomplished using a DA-505 by Kyoto Electronics Co., Ltd.

In the case of `CCCCCCCCCCCCOC(=O)CCCCCCCCCCC` [No. 2-18, Ester of dodecanoic acid (C12) and dodecyl alcohol (C12)], the “Surface tension (mN/m)” value is reported as 58.8 mN/m.
